In ChEMBL document CHEMBL1201862, “PubChem BioAssay data set” (2004):
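All cell lines were grown in 96-well plates and treated with compound for 48 hours. Abbreviation: GI50, concentration required for 50% inhibition of growth.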 Active and inactive are the calls of the source. No stated cut-off is given here; in the data, active = GI50 up to about 1.1 µM and inactive = higher.

Columns and labels:
Experiment in all cases: inhibition of tumour cell growth, NCI panel, 48 h
[1] = tested on: A498
[2] = tested on: A549
[3] = tested on: HCC 2998
[4] = tested on: HCT-15
[5] = tested on: HOP-62
[6] = tested on: HT-29
[7] = tested on: LOX IMVI
[8] = tested on: NCI-H226
[9] = tested on: OVCAR-5
[10] = tested on: OVCAR-8
[11] = tested on: SF-268
[12] = tested on: SF-539
[13] = tested on: SK-MEL-28
[14] = tested on: SK-MEL-2
[15] = tested on: SK-MEL-5
[16] = tested on: SK-OV-3
[17] = tested on: TK-10
[18] = tested on: Malme-3M
[19] = tested on: K562

| SMILES | GI50 [1] | GI50 [2] | GI50 [3] | GI50 [4] [µM] | GI50 [5] | GI50 [6] | GI50 [7] | GI50 [8] | GI50 [9] | GI50 [10] | GI50 [11] | GI50 [12] | GI50 [13] | GI50 [14] | GI50 [15] | GI50 [16] | GI50 [17] | GI50 [18] | GI50 [19] |
| --- | --- | --- | --- | --- | --- | --- | --- | --- | --- | --- | --- | --- | --- | --- | --- | --- | --- | --- | --- |
| CC(=O)OCC1=CC2OC(=O)C3=COC(OC4OC(CO)C(O)C(O)C4O)C1C32 (stereo unspecified) | > 100 µM (inactive) | > 100 µM (inactive) | > 100 µM (inactive) | > 100 | > 100 µM (inactive) | > 100 µM (inactive) | > 100 µM (inactive) | > 100 µM (inactive) | > 100 µM (inactive) | > 100 µM (inactive) | > 100 µM (inactive) | > 100 µM (inactive) | > 100 µM (inactive) | > 100 µM (inactive) | > 100 µM (inactive) | > 100 µM (inactive) | > 100 µM (inactive) | – | – |
| COc1ccc(-c2nnc3n(C)c4ccccc4n3c2=O)cc1 | > 100 µM (inactive) | > 100 µM (inactive) | > 100 µM (inactive) | > 100 | 14.5 µM (inactive) | > 100 µM (inactive) | > 100 µM (inactive) | > 100 µM (inactive) | > 100 µM (inactive) | 56.1 µM (inactive) | 29.6 µM (inactive) | 32.7 µM (inactive) | > 100 µM (inactive) | > 100 µM (inactive) | > 100 µM (inactive) | – | 89.1 µM (inactive) | > 100 µM (inactive) | – |
| O=C1C=C2CO[C@H]3OC[C@H](O)[C@@H]1[C@@H]23 | > 100 µM (inactive) | > 100 µM (inactive) | 29 µM (inactive) | 44 | > 100 µM (inactive) | > 100 µM (inactive) | 32.7 µM (inactive) | – | 73.5 µM (inactive) | 32 µM (inactive) | 36.2 µM (inactive) | – | 33.6 µM (inactive) | 16.3 µM (inactive) | > 100 µM (inactive) | > 100 µM (inactive) | 59.3 µM (inactive) | 21.6 µM (inactive) | 26.9 µM (inactive) |
| Cc1ccc2sc3ccc(N)cc3c(=O)c2c1 | 22.4 µM (inactive) | 54.2 µM (inactive) | 37.2 µM (inactive) | 24.8 | 32.8 µM (inactive) | 30.2 µM (inactive) | 28.1 µM (inactive) | 82.4 µM (inactive) | > 100 µM (inactive) | > 100 µM (inactive) | > 100 µM (inactive) | 53.2 µM (inactive) | > 100 µM (inactive) | 53.6 µM (inactive) | 51.9 µM (inactive) | 41.6 µM (inactive) | > 100 µM (inactive) | – | 37.6 µM (inactive) |
| Clc1cc(OC23CC4CC(CC(C4)C2)C3)nc(Cl)n1 | > 100 µM (inactive) | > 100 µM (inactive) | 12.9 µM (inactive) | 29.6 | > 100 µM (inactive) | 28.9 µM (inactive) | 17 µM (inactive) | – | > 100 µM (inactive) | > 100 µM (inactive) | 69.8 µM (inactive) | > 100 µM (inactive) | 43.2 µM (inactive) | 29.6 µM (inactive) | 38.8 µM (inactive) | > 100 µM (inactive) | > 100 µM (inactive) | > 100 µM (inactive) | 21.9 µM (inactive) |
| CC(=O)O[C@H]1CC[C@H]2[C@@H]3CCC4=C(C(=O)C=CC4(C)OC(C)=O)[C@H]3CC[C@]12C (stereo partly specified) | > 100 µM (inactive) | 90.2 µM (inactive) | 38.3 µM (inactive) | 64.3 | > 100 µM (inactive) | 46.6 µM (inactive) | 38.1 µM (inactive) | > 100 µM (inactive) | > 100 µM (inactive) | 39.5 µM (inactive) | 83.4 µM (inactive) | 43.6 µM (inactive) | > 100 µM (inactive) | – | 47.9 µM (inactive) | – | > 100 µM (inactive) | > 100 µM (inactive) | 33.1 µM (inactive) |
| S=C(N/N=C/c1ccccn1)N1CCCCC1 | < 0.0461 µM (active) | < 0.0129 µM (active) | 1.22 µM (inactive) | < 0.01 | < 0.01 µM (active) | < 0.01 µM (active) | < 0.01 µM (active) | – | – | < 0.01 µM (active) | < 0.0178 µM (active) | 0.135 µM (active) | 0.297 µM (active) | 0.0695 µM (active) | < 0.0198 µM (active) | < 0.01 µM (active) | 0.0205 µM (active) | < 0.0397 µM (active) | < 0.01 µM (active) |
| C[n+]1c(-c2ccccc2)cc2/c(=C\c3ccc([N+](=O)[O-])cc3)c3ccccc3n21 | 11 µM (inactive) | 2.15 µM (inactive) | 11.3 µM (inactive) | 14.3 | 4.84 µM (inactive) | 0.957 µM (active) | 2.63 µM (inactive) | 2.65 µM (inactive) | 6.85 µM (inactive) | 1.66 µM (inactive) | 3.47 µM (inactive) | 0.615 µM (active) | 7.41 µM (inactive) | 3.01 µM (inactive) | 1.95 µM (inactive) | 4.8 µM (inactive) | 9.06 µM (inactive) | – | – |
| COc1ccc(C(=O)c2nc3ccccc3nc2N2CCN(c3ccccc3)CC2)cc1OC | > 100 µM (inactive) | > 100 µM (inactive) | > 100 µM (inactive) | > 100 | > 100 µM (inactive) | > 100 µM (inactive) | > 100 µM (inactive) | – | > 100 µM (inactive) | > 100 µM (inactive) | > 100 µM (inactive) | > 100 µM (inactive) | > 100 µM (inactive) | > 100 µM (inactive) | > 100 µM (inactive) | > 100 µM (inactive) | > 100 µM (inactive) | > 100 µM (inactive) | > 100 µM (inactive) |
| Cc1ccc(S(=O)(=O)NNC(=O)c2cc(C)c(C)cc2N)cc1 | > 100 µM (inactive) | – | > 100 µM (inactive) | > 100 | > 100 µM (inactive) | > 100 µM (inactive) | > 100 µM (inactive) | > 100 µM (inactive) | > 100 µM (inactive) | 60.4 µM (inactive) | – | > 100 µM (inactive) | > 100 µM (inactive) | – | > 100 µM (inactive) | > 100 µM (inactive) | – | > 100 µM (inactive) | > 100 µM (inactive) |
| CC1(C)OC(=O)C(=Cc2ccc([N+](=O)[O-])s2)C(=O)O1 | 22.5 µM (inactive) | 90.8 µM (inactive) | 11.3 µM (inactive) | 3.18 | 18.2 µM (inactive) | 13.4 µM (inactive) | 16.7 µM (inactive) | 23.5 µM (inactive) | 16.6 µM (inactive) | 11.4 µM (inactive) | 14.7 µM (inactive) | 15.4 µM (inactive) | 18.9 µM (inactive) | – | 16.2 µM (inactive) | 25.5 µM (inactive) | 17.3 µM (inactive) | 19.2 µM (inactive) | – |
| Clc1ccc(OCc2nnc(COc3ccc(OCc4nnc(COc5ccc(Cl)cc5Cl)o4)c(Cl)c3)o2)c(Cl)c1 | 48.3 µM (inactive) | 32 µM (inactive) | 28.7 µM (inactive) | 89.7 | 51.6 µM (inactive) | 27.4 µM (inactive) | 17.3 µM (inactive) | 36.2 µM (inactive) | 36.2 µM (inactive) | 41.4 µM (inactive) | 23.5 µM (inactive) | – | 46.5 µM (inactive) | 33.8 µM (inactive) | 41.1 µM (inactive) | – | 76 µM (inactive) | 37.6 µM (inactive) | 24.3 µM (inactive) |
| CCOC(=O)c1c(OCC)[nH]c(=O)c(C(c2cccs2)c2c(O)c(C(=O)OCC)c(OCC)[nH]c2=O)c1O | 2.67 µM (inactive) | 14.5 µM (inactive) | 13.9 µM (inactive) | 14.5 | 10.4 µM (inactive) | 16.1 µM (inactive) | 12.6 µM (inactive) | 3.9 µM (inactive) | 26.5 µM (inactive) | 12.6 µM (inactive) | 10.2 µM (inactive) | 6.4 µM (inactive) | 13.1 µM (inactive) | 12.8 µM (inactive) | 12.9 µM (inactive) | – | 25.4 µM (inactive) | 8.36 µM (inactive) | – |
| S=C(Nc1c2c(nc3ccccc13)CCCC2)Nc1c2c(nc3ccccc13)CCCC2 | > 100 µM (inactive) | > 100 µM (inactive) | > 100 µM (inactive) | > 100 | > 100 µM (inactive) | > 100 µM (inactive) | – | > 100 µM (inactive) | > 100 µM (inactive) | > 100 µM (inactive) | > 100 µM (inactive) | – | > 100 µM (inactive) | > 100 µM (inactive) | > 100 µM (inactive) | > 100 µM (inactive) | > 100 µM (inactive) | > 100 µM (inactive) | > 100 µM (inactive) |
| CCOc1ccc(N/C(=C(/C(Cl)=C(/Cl)NCCN)[N+](=O)[O-])n2nnc3ccccc32)cc1 | 56.8 µM (inactive) | > 100 µM (inactive) | > 100 µM (inactive) | 17.9 | 90.8 µM (inactive) | 33.3 µM (inactive) | – | 86.1 µM (inactive) | 67.3 µM (inactive) | 15 µM (inactive) | 13.6 µM (inactive) | 18.2 µM (inactive) | 27.9 µM (inactive) | > 100 µM (inactive) | – | > 100 µM (inactive) | – | 14.5 µM (inactive) | 26.8 µM (inactive) |
| O=C(CSCC(=O)N/N=C\c1ccccc1F)N/N=C\c1ccccc1F | > 100 µM (inactive) | > 100 µM (inactive) | 38.5 µM (inactive) | 63.2 | – | > 100 µM (inactive) | > 100 µM (inactive) | 87.5 µM (inactive) | – | 49.9 µM (inactive) | > 100 µM (inactive) | > 100 µM (inactive) | > 100 µM (inactive) | > 100 µM (inactive) | 64.1 µM (inactive) | > 100 µM (inactive) | > 100 µM (inactive) | > 100 µM (inactive) | – |
